# Measurements: patent publication US9528092B2, “Methods of efficiently establishing induced pluripotent stem cells under hypoxic conditions” (Kyoto University, priority 2008, dated 2016)
# Tested on: four-factor transduced MEFs
# Experiment: Flow cytometric analysis of Nanog-GFP-positive cells on day 9 posttransduction
# Format: cell-based, mouse
# Settings: day 5 to day 9 posttransduction, flow cytometry on day 9, four factors alone 0.01%
# Procedure: Mice having a Nanog reporter were used as an experimental system. The Nanog reporter used was prepared by inserting the enhanced green fluorescent protein (EGFP) and puromycin resistant genes into the Nanog locus of a BAC (bacterial artificial chromosome) purchased from BACPAC Resources [Okita K. et al., Nature 448, 313-317 (2007)]. The mouse Nanog gene is expressed specifically in pluripotent cells such as ES cells and early embryos. The mouse iPS cells that have become positive for this reporter are known to be nearly equivalent to ES cells in terms of differentiation potential. Mouse embryonic fibroblasts (MEFs) and tail-tip fibroblasts (TTFs) obtained from a Nanog reporter mouse having this Nanog reporter [Okita K. et al., Nature 448, 313-317 (2007)] were transfected by means of retroviruses to establish iPS cells, and colonies expressing EGFP from the Nanog reporter were counted to evaluate the efficiency of establishment of iPS cells.
# To investigate whether GFP-positive cells were detected earlier or not, the four-factor transduced MEFs were cultivated under 20% oxygen or under 5% oxygen with or without 2 mM valproic acid (VPA) from day 5 to day 9 posttransduction, and were subjected to flow cytometric analysis on day 9. Retroviral expression of four factors induced 0.01% of the cells to become GFP-positive on day 9 posttransduction. […]
smiles,measurement,setting,value
"CCCC(CCC)C(=O)O [VPA, valproic acid]",percentage of GFP-positive cells,"2 mM VPA, 20% oxygen",0.48%
same,percentage of GFP-positive cells,co-treatment with hypoxia (5% oxygen) and 2 mM VPA,2.28%
